Test results taken from US9622481B2, “Biofilm-removing antimicrobial compositions and uses thereof” (Kane Biotech Inc., priority 2009, dated 2017).

How the values were obtained:
Type in all cases: cell-based
[1] = tested on: Escherichia coli; assay: Minimum inhibitory concentration (MIC) in 96-well microtiter plates; details: agent alone, TSB, 37° C., 24 hours
Description: (§1) Bacterial strains were grown overnight at 37° C. with 100 rpm shaking in Tryptic Soy Broth (TSB) and diluted to approximately 10^5 CFU/ml. Assays were conducted by methods of minimum inhibitory concentration (MIC) in 96-well microtiter plates as described previously (Amsterdam, D. 1996, In: V. Loman, Ed., “Antibiotics in laboratory medicine”, p. 52-111, Williams and Wilkins, Baltimore, M.D.). Antimicrobials PS and SNP both alone and together were serially diluted in TSB (100 μl), and 100 μl of bacterial suspension was added to each well. Plates were incubated at 37° C. for 24 hours and read at 600 nm using a microtiter plate reader (Multiskan Ascent, Labsystems, Helsinki, Finland).

[2] = tested on: S. aureus; assay: as above; details: agent alone, TSB, 37° C., 24 hours
Description: as §1

[3] = tested on: Staphylococcus epidermidis biofilm; assay: Biofilm formation, crystal violet staining, 96-well microplate (Example 3); details: reduction in biofilm formation, OD at 630 nm, 37° C., 24 hours
Description: (§2) An overnight broth culture of S. epidermidis was grown in TSB, and used as inoculum. 96-well microplates containing TSB (for gram-positive species) in the absence and the presence of each compound (PS or BZK) separately and together (PS and BZK) were inoculated and incubated at 37° C. for 24 hours. Growth of planktonic cells based on absorbance at 600 nm using Labsystems Multiskan Ascent microplate reader was determined. Biofilm was measured by discarding the media in the wells, rinsing the well three times with water, and staining the bound cells with crystal violet. The dye was then solubilized with 33% acetic acid, and absorbance at 630 nm was determined using a microtiter plate reader.

[4] = tested on: Escherichia coli biofilm; assay: Biofilm formation, crystal violet staining, 96-well microplate (Example 1); details: reduction in biofilm formation, OD at 630 nm, 26° C., 24 hours
Description: as §2, with “E. coli” for “S. epidermidis”, “TSB” for “TSB,”, “colony forming antigen medium” for “TSB”, “26°” for “37°”

[5] = tested on: Pseudomonas aeruginosa biofilm; assay: Biofilm formation, crystal violet staining, 96-well microplate (Example 2); details: reduction in biofilm formation, OD at 630 nm, 26°, 24 hours
Description: as §2, with “P. aeruginosa” for “S. epidermidis”, “TSB” for “TSB,”, “colony forming antigen medium” for “TSB”, “26°” for “37° C.”

[6] = tested on: Pseudomonas aeruginosa biofilm; assay: Biofilm formation, crystal violet staining, 96-well microtiter plate (Example 5); details: reduction in biofilm formation, OD at 630 nm, 37° C., 24 hours
Description: (§3) An overnight broth culture of P. aeruginosa was grown in TSB and used as inoculum. 96-well microtiter plate containing TSB in the absence and presence of each compound separately (SMP or FU) and together (SMP+FU) were inoculated. The biofilm was grown by incubating at 37° C. for 24 hours. Growth of planktonic cells based on absorbance at 600 nm using Labsystems Multiskan Ascent microplate reader was determined. Biofilm was measured by discarding the media in the wells, rinsing the well three times with water, and staining the bound cells with crystal violet. The dye was then solubilized with 33% acetic acid, and absorbance at 630 nm was determined using a microtiter plate reader.

[7] = tested on: Staphylococcus epidermidis biofilm; assay: Biofilm formation, crystal violet staining, 96-well microtiter plate (Example 6); details: reduction in biofilm formation, OD at 630 nm, 37° C., 24 hours
Description: as §3, with “S. epidermidis” for “P. aeruginosa”

[8] = tested on: Escherichia coli biofilm; assay: Biofilm formation, crystal violet staining, 96-well microtiter plate (Example 4); details: reduction in biofilm formation, OD at 630 nm, 37° C., 24 hours
Description: as §3, with “E. coli” for “P. aeruginosa”

[9] = tested on: Pseudomonas aeruginosa biofilm; assay: Biofilm formation, crystal violet staining, 96-well microplate (Example 8); details: reduction in biofilm formation, OD at 630 nm, 24 hours
Description: An overnight broth culture of bacteria and yeast were grown in TSB and used as inoculum. 96-well microplates containing TSB (for gram-positive species and yeast) and colony forming unit antigen medium (for gram-negative bacteria) in the absence and the presence of each compound separately (SMP or CHX) and together (SMP+CHX) were inoculated. The biofilm was grown by incubating at 37° C. (for gram-positive bacteria and yeast) and 26° C. (for gram-negative bacteria) for 24 hours. Growth of planktonic cells based on absorbance at 600 nm using Labsystems Multiskan Ascent microplate reader was determined. Biofilm was measured by discarding the media in the wells, rinsing the well three times with water, and staining the bound cells with crystal violet. The dye was then solubilized with 33% acetic acid, and absorbance at 630 nm was determined using a microtiter plate reader.

[10] = tested on: Staphylococcus epidermidis biofilm; assay: Biofilm formation, crystal violet staining, 96-well microtiter plate (Example 9); details: reduction in biofilm formation, OD at 630 nm, 37° C., 24 hours
Description: as §3, with “S. epidermidis” for “P. aeruginosa”, “CHX)” for “FU)”, “(SMP+CHX)” for “(SMP+FU)”

[11] = tested on: Escherichia coli biofilm; assay: Biofilm formation, crystal violet staining, 96-well microtiter plate (Example 7); details: reduction in biofilm formation, OD at 630 nm, 37° C., 24 hours
Description: as §3, with “E. coli” for “P. aeruginosa”, “CHX)” for “FU)”, “(SMP+CHX)” for “(SMP+FU)”

## protamine sulfate [PS]
[1]
  MIC: >200 µg/mL
[2]
  MIC: >200 µg/mL
[3]; PS 1.5 μg/ml alone
  Biofilm Inhibition by PS: 0.34 OD
[4]; PS 12 μg/ml alone
  Biofilm Inhibition by PS: 0.04 OD
[5]; PS 25 μg/ml alone
  Biofilm Inhibition by PS: 0.00 OD

## O=c1[nH]cc(F)c(=O)[nH]1 [FU, 5-fluorouracil]
[6]; FU 3.75 μg/ml alone
  Biofilm Inhibition by FU: 0.00 OD
[7]; FU 20 μg/ml alone
  Biofilm Inhibition by FU: 1.43 OD
[8]; FU 6.25 μg/ml alone
  Biofilm Inhibition by FU: 0.17 OD

## [H]/N=C(\N/C(=N/[H])NCCCCCCNC(=N)NC(=N)Nc1ccc(Cl)cc1)Nc1ccc(Cl)cc1 [CHX, chlorhexidine]
[9]; CHX 6 μg/ml alone
  Biofilm Inhibition by CHX: 0.66 OD
[10]; CHX 0.5 μg/ml alone
  Biofilm Inhibition by CHX: 0.00 OD
[11]; CHX 1 μg/ml alone
  Biofilm Inhibition by CHX: 0.04 OD

## [Na+].[O-][I+3]([O-])([O-])[O-] [SMP, sodium metaperiodate]
[6]; SMP 250 μg/ml alone
  Biofilm Inhibition by SMP: 0.16 OD
[9]; SMP 125 μg/ml alone
  Biofilm Inhibition by SMP: 0.17 OD
[7]; SMP 250 μg/ml alone
  Biofilm Inhibition by SMP: 0.00 OD
[10]; SMP 250 μg/ml alone
  Biofilm Inhibition by SMP: 0.00 OD
[11]; SMP 250 μg/ml alone
  Biofilm Inhibition by SMP: 0.12 OD
[8]; SMP 250 μg/ml alone
  Biofilm Inhibition by SMP: 0.3 OD

## benzalkonium chloride [BZK]
[3]; BZK 0.8 μg/ml alone
  Biofilm Inhibition by BZK: 1.21 OD
[4]; BZK 6 μg/ml alone
  Biofilm Inhibition by BZK: 0.14 OD
[5]; BZK 12.5 μg/ml alone
  Biofilm Inhibition by BZK: 0.00 OD
